Data from patent US6326369A, “Bicyclic quinone compounds, their production and use” (Takeda Chemicals Industries, Ltd., priority 1997, dated 2001).
pIC50: −log10 of the molar value. Read-outs that look alike come from different tables or passages of the source.

System: Brain Homogenate
Assay: Peroxylipid formation inhibiting effect in brain homogenate (thiobarbituric acid (TBA) method)
Assay type: biochemical, Wistar rats (male, 12-week old)
Conditions: 37° C., 30 minutes, pH 7.4
Description: JC1:Wistar rats (male, 12-week old) were used as test animals. The rats were sacrificed by decapitation, and the brain was quickly removed and homogenized with 10 ml of 10 mM Tris-HCl buffer (pH 7.4) containing 150 mM KCl. The resulting homogenate was centrifuged at 2,200 rpm, at 4° C., for 10 minutes, and the supernatant was used in the test. 250 μl of the supernatant was put into a 96-well plate, to which was added a test compound and incubated at 37° C. for 30 minutes.
The concentration of glutamic acid and succinic acid, if added prior to the incubation, was 5.0 mM and 2.5 mM, respectively.
To determine the amount of the peroxylipid formed, used was a thiobarblturic acid (TBA) method. Briefly, 50 μl of 35% perchloric acid was added to the incubated mixture, which was then centrifuged at 2,000 rpm, at 4° C., for 10 minutes. The resulting supernatant was transferred into a different 96-well plate in an amount of 200 μl/well. 100 μl/well of TBA (5 mg/ml TBA in 50% acetic acid) was added thereto, and reacted at 80° C. for 1 hour. Then, the reaction mixture was cooled to room temperature, and its absorbance at 532 nm was measured.
On the other hand, a calibration curve was prepared using tetraethoxypropane which is a […] for TBA. In the same manner, the peroxylipid concentration in a sample that had been incubated for 30 minutes in the absence of the test compound, and also the peroxylipid concentration in a sample to which had been added 35% perchloric acid prior to the incubation (in the absence of the test compound) were also obtained. The inhibition percentage was calculating according to the following equation. The 50% inhibitory concentration (IC50) was obtained, using a log-probit method.
Inhibition Percentage (%)=[(C-A)/(C-B)]×100
A: Peroxylipid concentration in the sample to which was added the test compound;
B: Peroxylipid concentration in the sample to which was added 35% perchloric acid prior to the incubation;
C: Peroxylipid concentration in the sample to which was not added the test compound.

[1] = brain homogenate only, read-out: Peroxylipid Formation Inhibiting Effect (IC50) Brain Homogenate Only
[2] = glutamic acid 5.0 mM and succinic acid 2.5 mM added prior to incubation, read-out: Peroxylipid Formation Inhibiting Effect (IC50) Glutamic Acid and Succinic Acid Added

pIC50 [1] | pIC50 [2] | SMILES
5.64 | 6.03 | CCOC(=O)CCCCCCCC1CC2=C(C1)C(=O)C(OC)=C(OC)C2=O [Ex. 9, Ethyl 8-(5,6-dimethoxy-4,7-dioxoindan-2-yl)octanoate]
5.96 | 6.77 | COC1=C(OC)C(=O)C2=C(CC(CCCCCCCCO)C2)C1=O [Ex. 10, 2-(8-Hydroxyoctyl)-5,6-dimethoxyindan-4,7-dione]
